Experiments:
KDM6A (UTX) = KDM6A (UTX) (Homo sapiens, UniProt O15550); assay: Histone lysine demethylase AlphaLISA assay, KDM6A; format: biochemical; settings: read-out: KDM6A HDME Inhibition IC50
In short: (§1)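 AlphaLISA demethylation readout: enzyme preincubated 10 min, then 10 min with compounds in 3% DMSO buffer, before biotinylated methyl-lysine histone peptide substrate with 25 μM L-Asc and 10 μM α-KG, room temperature. Acceptor beads then streptavidin donor beads added, dark incubation, plates read.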

MOLP8 = assay: Cell proliferation assay MOLP8; format: cell-based; settings: Homo sapiens, MOLP-8; MOLP8, Myeloma; method of Example 5
Protocol: (§2) MCF7 cells were seeded in multi well plates at a density optimized to give approximately 90% confluent cells at the time of harvest. Cells were incubated for 24 hours before addition of compound. Compounds were diluted in complete medium and added to the plates in duplicates. The final concentration of DMSO was maximum 0.5%. Complete medium used was DMEM with GlutaMAX containing 10% FBS and pen/strep.
(§3) 120 hours after addition of compounds, the plates were harvested and analyzed by ATPlite 1 Step (Perkin Elmer, cat no 6016739) according to the manufactures recommendation.
(§4) The assays were performed by the method of Example 5 by seeding the relevant cell line at a density optimized to give approximately 90% confluent cells at the time of harvest.

KDM4C (JMJD2C) = target: T1, KDM4C (JMJD2C) (Homo sapiens, UniProt Q9H3R0); assay: Histone lysine demethylase AlphaLISA assay, KDM4C; format: biochemical; settings: read-out: KDM4C HDME Inhibition IC50
T1 sequence (Q9H3R0 1-349): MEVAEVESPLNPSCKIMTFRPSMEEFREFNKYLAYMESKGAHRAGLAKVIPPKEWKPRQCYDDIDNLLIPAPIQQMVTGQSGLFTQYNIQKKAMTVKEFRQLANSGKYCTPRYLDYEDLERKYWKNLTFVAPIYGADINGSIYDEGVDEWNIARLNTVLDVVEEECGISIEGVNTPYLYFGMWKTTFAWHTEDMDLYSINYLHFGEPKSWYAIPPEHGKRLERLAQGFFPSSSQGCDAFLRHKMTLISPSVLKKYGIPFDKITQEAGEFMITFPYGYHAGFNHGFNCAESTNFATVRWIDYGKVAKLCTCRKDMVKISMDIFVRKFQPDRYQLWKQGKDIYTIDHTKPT
In short: as §1

MCF7 cells = assay: Cell proliferation assay MCF7; format: cell-based; settings: MCF7 human breast cancer cells; 120 hours; ATPlite 1 Step
In short: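 Cells grown 24 h in DMEM GlutaMAX/10% FBS, then exposed to compounds in duplicate (≤0.5% DMSO) for 120 h. Viability read as ATP luminescence (ATPlite 1 Step). Seeding set to reach ~90% confluence at harvest.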

KDM5B (PLU-1) = target: T2, KDM5B (PLU-1) (Homo sapiens, UniProt Q9UGL1); assay: Histone lysine demethylase AlphaLISA assay, KDM5B; format: biochemical; settings: read-out: KDM5B HDME Inhibition IC50
T2 sequence (Q9UGL1 1-809): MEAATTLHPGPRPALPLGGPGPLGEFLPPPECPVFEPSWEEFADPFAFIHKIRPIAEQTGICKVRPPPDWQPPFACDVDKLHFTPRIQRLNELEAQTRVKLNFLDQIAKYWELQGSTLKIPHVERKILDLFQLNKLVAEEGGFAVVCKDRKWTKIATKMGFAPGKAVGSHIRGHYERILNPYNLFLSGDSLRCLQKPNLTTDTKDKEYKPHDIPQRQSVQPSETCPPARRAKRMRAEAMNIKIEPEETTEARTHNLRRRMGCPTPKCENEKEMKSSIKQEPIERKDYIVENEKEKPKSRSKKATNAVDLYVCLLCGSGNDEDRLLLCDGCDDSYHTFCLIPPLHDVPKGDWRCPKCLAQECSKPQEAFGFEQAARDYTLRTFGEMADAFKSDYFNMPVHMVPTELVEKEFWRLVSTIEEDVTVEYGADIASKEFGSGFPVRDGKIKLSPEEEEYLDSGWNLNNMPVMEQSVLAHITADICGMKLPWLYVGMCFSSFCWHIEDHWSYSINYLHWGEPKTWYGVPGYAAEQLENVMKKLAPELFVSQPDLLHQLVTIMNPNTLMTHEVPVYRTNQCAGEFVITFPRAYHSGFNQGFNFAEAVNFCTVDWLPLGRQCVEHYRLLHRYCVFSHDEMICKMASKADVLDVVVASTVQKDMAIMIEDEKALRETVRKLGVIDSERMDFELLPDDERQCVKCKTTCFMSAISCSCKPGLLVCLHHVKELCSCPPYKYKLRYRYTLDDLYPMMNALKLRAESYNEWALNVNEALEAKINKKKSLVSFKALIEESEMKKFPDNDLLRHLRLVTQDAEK
In short: as §1

KARPAS620 = assay: Cell proliferation assay KARPAS620; format: cell-based; settings: Homo sapiens, Karpas-620; KARPAS620, Plasma cell leukemia; method of Example 5
Protocol: as §2, §3, §4

KDM2B (FBXL10) = target: T3, KDM2B (FBXL10) (Homo sapiens, UniProt Q8NHM5); assay: Histone lysine demethylase AlphaLISA assay, KDM2B; format: biochemical; settings: read-out: KDM2B HDME Inhibition IC50
T3 sequence (Q8NHM5 1-650): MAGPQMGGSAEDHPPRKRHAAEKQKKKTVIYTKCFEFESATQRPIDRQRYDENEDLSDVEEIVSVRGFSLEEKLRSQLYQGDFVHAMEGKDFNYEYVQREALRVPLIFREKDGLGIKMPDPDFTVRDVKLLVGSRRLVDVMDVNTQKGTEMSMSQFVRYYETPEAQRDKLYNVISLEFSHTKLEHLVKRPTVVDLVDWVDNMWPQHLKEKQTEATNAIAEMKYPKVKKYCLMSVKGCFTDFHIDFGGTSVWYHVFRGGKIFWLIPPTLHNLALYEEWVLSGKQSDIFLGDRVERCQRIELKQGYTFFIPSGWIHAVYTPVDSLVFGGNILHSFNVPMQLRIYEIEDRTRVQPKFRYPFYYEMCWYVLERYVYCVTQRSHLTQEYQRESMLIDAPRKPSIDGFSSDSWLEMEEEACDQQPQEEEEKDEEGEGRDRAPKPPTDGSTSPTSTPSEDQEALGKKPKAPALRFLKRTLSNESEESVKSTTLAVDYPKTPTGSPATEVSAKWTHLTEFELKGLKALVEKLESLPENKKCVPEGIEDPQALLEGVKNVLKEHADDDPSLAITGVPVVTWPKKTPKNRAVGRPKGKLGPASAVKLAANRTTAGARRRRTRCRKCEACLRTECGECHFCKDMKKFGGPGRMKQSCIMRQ
In short: as §1

KDM6A (UTX), sequence (O15550 919-1401): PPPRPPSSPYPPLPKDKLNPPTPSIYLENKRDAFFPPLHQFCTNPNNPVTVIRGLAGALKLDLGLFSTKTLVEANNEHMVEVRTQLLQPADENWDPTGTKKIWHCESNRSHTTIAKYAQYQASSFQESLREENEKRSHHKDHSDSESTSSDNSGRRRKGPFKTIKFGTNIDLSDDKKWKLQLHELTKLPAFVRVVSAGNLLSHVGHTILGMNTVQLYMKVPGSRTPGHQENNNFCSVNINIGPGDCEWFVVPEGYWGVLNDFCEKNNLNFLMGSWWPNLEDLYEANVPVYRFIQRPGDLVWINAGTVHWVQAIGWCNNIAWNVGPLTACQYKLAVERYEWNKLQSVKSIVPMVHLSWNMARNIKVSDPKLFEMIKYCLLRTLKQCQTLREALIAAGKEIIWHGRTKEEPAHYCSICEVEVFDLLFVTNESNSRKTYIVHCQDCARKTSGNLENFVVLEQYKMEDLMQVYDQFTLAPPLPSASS

- IC50 (KDM6A (UTX)): > 2.5 µM
- IC50 (KDM4C (JMJD2C)): 0.25 to 2.5 µM
- EC50 (MCF7 cells): < 0.25 µM
- IC50 (KDM5B (PLU-1)): < 0.25 µM
- EC50 (KARPAS620): < 0.25 µM
- IC50 (KDM2B (FBXL10)): > 2.5 µM
SMILES: CCN(CCN(C)C)C(=O)CNCc1cc(/C=N/CC(CO)C2CCCCC2)ccn1 (stereo not shown) [Compound 81, 2-[({4-[[(2-cyclohexyl-3-hydroxypropyl)-imino]methyl]pyridin-2-yl}methyl)-amino]-N-[2-(dimethylamino)-ethyl]-N-ethylacetamide]
- EC50 (MOLP8): < 0.25 µM
